Here are results for 11 compounds from US20240059729A1, “MULTIFUNCTIONAL CYCLIC DINUCLEOTIDE AND USE THEREOF” (TYLIGAND BIOSCIENCE (SHANGHAI) LIMITED, priority 2020, published 2024).

The structures appear in SMILES notation. Structures can show the parent of a compound that is named as a salt. Where only a bound is given, the exact number is not on record here.

Assay [1] deals with CT26 cells. As to the kind of experiment: Inhibition of proliferation of CT26 cells (CellTiter-Glo). It is filed as cell-based, mouse. To be noted: for IC50: Mus musculus, 120 hours, CellTiter-Glo. As to the method:
CT26 cell is a mouse colorectal cancer cell line. This assay used the CellTiter-Glo Luminescence Cell Vitality Assay kit from Promega to evaluate the inhibitory activity of the compounds on the proliferation of CT26 cells.
In thawing the CT26 cells (ATCC #CRL-2638), a cell freezing tube was quickly shaken in a water bath at 37° C. to thaw the cells within 1 min. The thawed cell suspension was taken and evenly mixed with DMEM medium (GE, Cat #SH30243.01) containing 10% FBS (GIBCO, Cat #10099-141), centrifuged for 5 min at 1000 rpm, and the supernatant was discarded. The cell pellet was resuspended in 5 mL of the complete medium (DMEM medium containing 10% FBS), placed into a cell culture flask with a bottom area of 25 cm^2, and incubated in a cell incubator at 37° C., 5% CO2 and 95% humidity. When the cell confluence reached 70%˜80%, the cells were passaged. All the cells in the culture flask were transferred to a 15 mL centrifuge tube, centrifuged for 5 min at 1000 rpm, and the supernatant was discarded. 5 mL of fresh complete medium was added to re-suspend the cell pellet, 1 mL of which was taken to place in a cell culture flask with a bottom area of 25 cm^2, supplemented with 4 mL of fresh complete medium for further incubation. When the cell confluence reached 70%-80% again, plating was conducted following the procedure of cell passage, retaining 1/5 cell suspension for further inculation and remaining 4/5 of the cell suspension in a 15 mL centrifuge tube.
The cell suspension was centrifuged to discard the old culture medium, washed once using DMEM medium (serum-free), and centrifuged to remove the supernatant. The cells were then re-suspended in DMEM medium (serum-free). Cell viability was then detected by Trypan blue exclusion test and to be used for plating when the cell viability was confirmed to be more than 95%. A cell suspension with a density of 1.1×10^4 viable cells/mL was prepared using DMEM medium (serum-free), and 90 μL of the cell suspension was added to a 96-well 96-well transparent flat-bottomed black-walled cell culture plate (Corning, Cat #3603) so that the cell density in the plate was 1000 viable cells/well. A control group containing no cells, no compound, and complete medium only (i.e., a culture medium control), and a control group containing no compound but cells (i.e., a cell control) were set. The cell plates were placed in a cell incubator overnight.
(§1) A 10 mM stock solution of the compounds in DMSO was first serially diluted at 3.16-fold with DMSO (Sigma, Cat #D2650) to the 9th concentration, and the 10th concentration was set as DMSO control (compound-free). Then, the DMSO solutions containing different concentrations of the compounds were diluted at 10-fold with PBS (Solarbio, Cat #P1020) so that the DMSO content in each compound solution of various concentrations was 10%. Finally, 10 μL of each of such solutions was added into corresponding cell culture plate to provide an initial compound concentration of 100 μM, with the dilution fold of adjacent concentrations being 3.16 and the DMSO content in the cell culture plate being 1%. The cell plate was placed in a cell incubator for further 120 hours.
After 120 hours, the CellTiter-Glo reagent (Promega, Cat #G7572) was thawed and the plates were equilibrated at room temperature for 30 min. 100 uL of CellTiter-Glo was added to each well of the plate, and the cells were lysed thoroughly by shaking on an orbital shaker for 5 min. The plates were placed at room temperature for 20 min to stabilize the luminescence signal, and the luminescence value of each well was scanned at full wavelength with a multifunctional microplate reader (Molecular Devices, Spectramax M3). […]

Assay [2] relates to IFN-β secretion by THP-1 cells. In words: Activation of IFN-β secretion by THP-1 cells (Human IFN-beta ELISA). To be noted: THP-1 cells, 24 hours, IFN-β ELISA. Format: cell-based. As to the method:
THP-1 cell, a human monocytic leukemia cell line, has the STING phenotype of HAQ type, i.e., R71H-G230A-R293Q. This assay used the Human IFN-beta DuoSet ELISA Kit from R & D (R & D, Cat #DY814-05) and the DuoSet ELISA Ancillary Reagent Kit 2 (R & D, Cat #DY008) to evaluate the activation of IFN-β secretion from THP-1 cells by representative compounds of the invention.
In thawing the THP-1 cells (ATCC #TIB-202), a cell freezing tube was quickly shaken in a water bath at 37° C. to thaw the cells within 1 min. The thawed cell suspension was taken and evenly mixed with an RPMI1640 medium (Hyclone, product #SH30027.01) containing 10% FBS (Life Technology, Cat #10099-141), centrifuged for 5 min at 1000 rpm, and the supernatant was discarded. The cell pellet was resuspended in 5 mL of the complete medium (RPMI 1640 medium containing 10% FBS), placed into a cell culture flask with a bottom area of 25 cm^2, and incubated in a cell incubator at 37° C., 5% CO2 and 95% humidity. When the cell confluence reached about 80%, the cells were passaged. All the cells in the culture flask were transferred to a 15 mL centrifuge tube, centrifuged for 5 min at 1000 rpm, and the supernatant was discarded. 5 mL of fresh complete medium was added to re-suspend the cell pellet, 1 mL of which was taken to place in a cell culture flask with a bottom area of 25 cm^2, supplemented with 4 mL of fresh complete medium for further incubation. When the cell confluence reached about 80% again, plating was conducted following the procedure of cell passage, retaining 1/5 cell suspension for further inculation and remaining 4/5 of the cell suspension in a 15 mL centrifuge tube. The cell suspension was centrifuged to discard the old culture medium, washed once using RPMI1640 culture medium (serum-free), and centrifuged to remove the supernatant. The cells were then re-suspended in RPMI1640 culture medium (serum-free). Cell viability was then detected by Trypan blue exclusion test and to be used for plating when the cell viability was confirmed to be more than 95%. A cell suspension with a density of 1.1×10^6 viable cells/mL was prepared using RPMI1640 culture medium (serum-free), and 180 μL of the cell suspension was added to a 96-well cell culture plate (NUNC Company, Cat #167008) so that the cell density in the plate was 2×10^5 viable cells/well.
as §1, with “the 5th” for “the 9th”, “the 6th” for “the 10th”, “PBS” for “PBS (Solarbio, Cat #P1020)”, “Finally, 20” for “Finally, 10”, “further 24” for “further 120”
ELISA detection was conducted referring to the instructions from R & D System, Cat #DY814-05.
ELISA plate coating: PBS (R & D System Cat #DY006) was used to dilute the capture antibody (mouse anti-human IFN-β capture antibody PART #844508) to provide the working concentration, and 100 μL capture antibody working solution was added to a 96-well ELISA plate which was then sealed and incubated overnight at room temperature. Upon discarding the capture antibody working solution, the cell plate was washed 3 times with a washing buffer (0.05% Tween-20 in PBS, pH 7.2-7.4, R & D System Cat #WA126) at 400 μL of the washing buffer per well, and the washing buffer was thoroughly removed after each washing, with the final washing to be completely removed of the wash buffer by inverting and claping the plate to a clean piece of paper. […]
A general note: An ELISA detects its analyte on a solid surface through an enzyme-linked reagent.

One may read the IC50 as the concentration that gives 50% inhibition. Lower therefore signals greater potency in that assay. Regarding `Nc1ccn([C@@H]2O[C@@H]3CO[P@@](=O)(S)OC4[C@@H](CO[P@@](=O)(S)OC3C2(F)F)O[C@@H](n2ccc(N)nc2=O)C4(F)F)c(=O)n1` (stereo partly drawn) [Example 3, (3′,3′)-cyclo-(Rp,Rp)-bis-[3′-O-phosphorothioate-diester-2′-deoxy-2′,2′-difluorocytidine]], in assay [1], the “Inhibitory potency on in vitro growth of CT26 tumor cells (in words)” value is on record as “particularly significant inhibitory potency” and the IC50 was < 1 µM. In general, EC50 refers to the concentration giving half of the maximal effect. As for `Nc1nc2c(ncn2[C@@H]2O[C@@H]3COP(=O)(O)O[C@H]4[C@@H](O)[C@H](n5cnc6c(N)ncnc65)O[C@@H]4COP(=O)(O)O[C@@H]2[C@@H]3O)c(=O)[nH]1` [2′,3′-cGAMP, cGAMP, reference compound], the EC50 in assay [2] lay in the range of 10.1 to 100 µM. Regarding `Nc1nc2c(ncn2[C@@H]2O[C@@H]3CO[P@@](=O)(S)OC4C(F)[C@H](n5cnc6c(N)nc(Cl)nc65)O[C@@H]4CO[P@](=O)(S)OC3C2O)c(=O)[nH]1` (stereo partly drawn) [Example 15, (3′,3′)-cyclo-(Sp,Rp)-[3′-O-phosphorothioate-diester-guanosine]-[3′-O-phosphorothioate-diester-2-chloro-2′-deoxy-2′-fluoro-beta-adenosine] diammonium salt], the EC50 in assay [2] (diammonium salt) is 10.1 to 100 µM. The compound `CCCC(CCC)C(=O)Nc1ccn([C@@H]2O[C@H](CO)[C@@H](O)C2(F)F)c(=O)n1` [LY2334737, N4-(2-propylpentanoyl)-2′-deoxy-2′,2′-difluorocytidine, reference compound] yielded an IC50 in assay [1] of 1 to 10 µM. With `Nc1nc2c(ncn2[C@@H]2O[C@@H]3CO[P@@](=O)(S)OC4C[C@H](n5cnc6c(N)nc(Cl)nc65)O[C@@H]4CO[P@](=O)(S)OC2C3O)c(=O)[nH]1` (stereo partly drawn) [Example 11, (2′,3′)-cyclo-(Sp,Rp)-[2′-O-phosphorothioate-diester-guanosine]-[3′-O-phosphorothioate-diester-2-chloro-2′-deoxy-adenosine] diammonium salt], the EC50 in assay [2] (Homo sapiens, THP-1, 24 h) was 10.1 to 100 µM. In assay [2] (Homo sapiens, THP-1, 24 h), `Nc1nc2c(ncn2[C@@H]2O[C@@H]3CO[P@](=O)(S)OC4C(F)[C@H](n5cnc6c(N)nc(Cl)nc65)O[C@@H]4CO[P@](=O)(S)OC2C3O)c(=O)[nH]1` (stereo partly drawn) [Example 9, (2′,3′)-cyclo-(Sp,Sp)-[2′-O-phosphorothioate-diester-guanosine]-[3′-O-phosphorothioate-diester-2-chloro-2′-deoxy-2′-fluoro-beta-adenosine] diammonium salt] yielded an EC50 of 10.1 to 100 µM. Same read-out and setting: for `Nc1nc2c(ncn2[C@@H]2O[C@@H]3CO[P@@](=O)(S)OC4C[C@H](n5cnc6c(N)nc(Cl)nc65)O[C@@H]4CO[P@@](=O)(S)OC3C2F)c(=O)[nH]1` (stereo partly drawn) [Example 21, (3′,3′)-cyclo-(Rp,Rp)-[3′-O-phosphorothioate-diester-2′-deoxy-2′-fluoroguanosine]-[3′-O-phosphorothioate-diester-2-chloro-2′-deoxyadenosine] diammonium salt] the value was 10.1 to 100 µM; for `CNc1nc(N)c2ncn([C@@H]3O[C@@H]4CO[P@@](=O)(S)O[C@H]5C(O)[C@@H](CO[P@@](=O)(S)O[C@@H]4C3F)O[C@H]5n3cnc4c(=O)[nH]c(N)nc43)c2n1` (stereo partly drawn) [Example 26, (2′,3′)-cyclo-(Rp,Rp)-[2′-O-phosphorothioate-diester-guanosine]-[3′-O-phosphorothioate-diester-2-methylamino-2′-deoxy-2′-fluoro-beta-adenosine] diammonium salt], 1 to 10 µM. In assay [2] (Homo sapiens, THP-1, 24 h), `Nc1nc2c(ncn2[C@@H]2O[C@@H]3CO[P@@](=O)(S)OC4C(F)[C@H](n5cnc6c(N)nc(Cl)nc65)O[C@@H]4CO[P@](=O)(S)OC2C3O)c(=O)[nH]1` (stereo partly drawn) [Example 8, (2′,3′)-cyclo-(Sp,Rp)-[2′-O-phosphorothioate-diester-guanosine]-[3′-O-phosphorothioate-diester-2-chloro-2′-deoxy-2′-fluoro-beta-adenosine] diammonium salt] showed an EC50 of 10.1 to 100 µM. Still for that read-out and setting: the figure for `Nc1ncnc2c1ncn2[C@@H]1O[C@@H]2CO[P@@](=O)(S)O[C@@H]3C[C@H](n4cnc5c(N)nc(Cl)nc54)O[C@@H]3CO[P@@](=O)(S)OC2[C@@H]1F` (stereo partly drawn) [Example 19, (3′,3′)-cyclo-(Rp,Rp)-[3′-O-phosphorothioate-diester-2′-deoxy-2′-fluoroadenosine]-[3′-O-phosphorothioate-diester-2-chloro-2′-deoxyadenosine] 0.5-1,8-diazabicycloundec-7-ene-salt] is 10.1 to 100 µM; for `Nc1nc(Cl)nc2c1ncn2[C@@H]1O[C@@H]2CO[P@@](=O)(S)OC3[C@@H](CO[P@@](=O)(S)O[C@@H]2C1F)O[C@@H](n1cnc2c(N)ncnc21)[C@H]3F` (stereo partly drawn) [Example 18, (3′,3′)-cyclo-(Rp,Rp)-[3′-O-phosphorothioate-diester-2′-deoxy-2′-fluoroadenosine]-[3′-O-phosphorothioate-diester-2-chloro-2′-deoxy-2′-fluoro-beta-adenosine]-0.5-ammonium-1.5-1,8-diazabicycloundec-7-ene-salt] it is 10.1 to 100 µM.
